{"source": "patent US20130184302A1", "about": "“METHODS FOR TREATING IRRITABLE BOWEL SYNDROME (IBS) AND INFECTIONS” (priority 2011, published 2013)", "key": {"[1]": {"test_system": "C. difficile infection (CDI)", "assay": "CDI trial: global cure of diarrhea", "type": "in vivo, human", "from_the_text": "Subjects having a global cure of diarrhea are set for the in Table 45. Global cure of diarrhea was defined as subjects who were cured of diarrhea at TOC without recurrence at follow up."}, "subjects with IBS": {"test_system": "subjects with IBS", "assay": "Sustained response and recurrence of symptoms after Primary Evaluation Period, rolling 4 weeks", "type": "in vivo, human", "description": "An evaluation of the enrolled subjects was carried out after the Primary Evaluation Period in the study described in Examples 5-7. […] Subjects with no recurrence are defined as having a stool consistency score of less than 4, abdominal pain reduced by at least 30 percent or both."}, "[2]": {"settings": "Rifaximin N = 117, Vancomycin N = 115"}, "[3]": {"settings": "cured of diarrhea at TOC without recurrence at follow up, Rifaximin N = 117, Vancomycin N = 115"}, "[4]": {"settings": "Rolling 2-5 Weeks, First and Second Studies, Rifaximin (N = 624)"}, "[5]": {"settings": "Rolling 3-6 Weeks, First and Second Studies"}, "[6]": {"settings": "Rolling 4-7 Weeks, First and Second Studies"}, "[7]": {"settings": "Rolling 4-7 Weeks, Rifaximin (N = 624)"}, "[8]": {"settings": "Rolling 5-8 Weeks, First and Second Studies"}, "[9]": {"settings": "Rolling 5-8 Weeks, Rifaximin (N = 624)"}, "[10]": {"settings": "Rolling 6-9 Weeks, First and Second Studies"}, "[11]": {"settings": "Rolling 6-9 Weeks, Rifaximin (N = 624)"}, "[12]": {"settings": "Rolling 7-10 Weeks, First and Second Studies"}, "[13]": {"settings": "Rolling 7-10 Weeks, Rifaximin (N = 624)"}, "[14]": {"settings": "Rolling 8-11 Weeks, First and Second Studies"}, "[15]": {"settings": "Rolling 8-11 Weeks, Rifaximin (N = 624)"}, "[16]": {"settings": "Rolling 9-12 Weeks, First and Second Studies"}}}
{"smiles": "CO[C@H]1/C=C/O[C@@]2(C)Oc3c(C)c(O)c4c(O)c(c5c(nc6cc(C)ccn65)c4c3C2=O)NC(=O)/C(C)=C\\C=C\\[C@H](C)[C@H](O)[C@@H](C)[C@@H](O)[C@@H](C)[C@H](OC(C)=O)[C@@H]1C", "note": "[Rifaximin, (2S,16Z,18E,20S,21S,22R, 23R,24R,25S,26S,27S,28E)-5,6,21,23,25 Pentahydroxy-27-methoxy-2,4,11,16,20,22,24,26-octamethyl-2,7-(epoxypentadeca-(1,11,13)trienimino) benzofuro (4,5-e) pyrido(1,2,-a) benzimidazole-1,15(2H)-dione,25-acetate]", "values": [{"measurement": "Global Cure of Diarrhea: No, number of subjects", "setting": "[1]; [2]", "result": 34}, {"measurement": "Global Cure of Diarrhea: No, percent of subjects", "setting": "[1]; [2]", "result": "(29%)"}, {"measurement": "Global Cure of Diarrhea: Treatment Difference", "setting": "[1]; Rifaximin vs Vancomycin", "result": "−3.0", "unit": "%"}, {"measurement": "Global Cure of Diarrhea: Yes, number of subjects", "setting": "[1]; [3]", "result": 83}, {"measurement": "Global Cure of Diarrhea: Yes, percent of subjects", "setting": "[1]; [3]", "result": "(71%)"}, {"measurement": "Abdominal Pain or Stool Consistency: Sustained Durable Response", "setting": "subjects with IBS; First and Second Studies, Rifaximin (N = 624)", "result": "(28.8%)"}, {"measurement": "Abdominal Pain & Stool Consistency: Sustained Durable Response", "setting": "subjects with IBS; Rifaximin (N = 624)", "result": "(33.2%)"}, {"measurement": "Abdominal Pain: Sustained Durable Response", "setting": "subjects with IBS; Rifaximin (N = 624)", "result": "(35.7%)"}, {"measurement": "Stool Consistency: Sustained Durable Response", "setting": "subjects with IBS; Rifaximin (N = 624)", "result": "(68.9%)"}, {"measurement": "Abdominal Pain or Stool Consistency: No Recurrence", "setting": "subjects with IBS; [4]", "result": "(45.8%)"}, {"measurement": "Abdominal Pain or Stool Consistency: Recurrence", "setting": "subjects with IBS; [4]", "result": "(1.9%)"}, {"measurement": "Abdominal Pain or Stool Consistency: No Recurrence", "setting": "subjects with IBS; [5]", "result": "(43.9%)"}, {"measurement": "Abdominal Pain or Stool Consistency: Recurrence", "setting": "subjects with IBS; [5]", "result": "(3.7%)"}, {"measurement": "Abdominal Pain or Stool Consistency: No Recurrence", "setting": "subjects with IBS; [6]", "result": "(40.2%)"}, {"measurement": "Abdominal Pain or Stool Consistency: Recurrence", "setting": "subjects with IBS; [6]", "result": "(2.7%)"}, {"measurement": "Abdominal Pain & Stool Consistency: No Recurrence", "setting": "subjects with IBS; [7]", "result": "(48.2%)"}, {"measurement": "Abdominal Pain & Stool Consistency: Recurrence", "setting": "subjects with IBS; [7]", "result": "(3.7%)"}, {"measurement": "Abdominal Pain: No Recurrence", "setting": "subjects with IBS; [7]", "result": "(51.9%)"}, {"measurement": "Abdominal Pain: Recurrence", "setting": "subjects with IBS; [7]", "result": "(3.8%)"}, {"measurement": "Stool Consistency: No Recurrence", "setting": "subjects with IBS; [7]", "result": "(78.8%)"}, {"measurement": "Stool Consistency: Recurrence", "setting": "subjects with IBS; [7]", "result": "(1.3%)"}, {"measurement": "Abdominal Pain or Stool Consistency: No Recurrence", "setting": "subjects with IBS; [8]", "result": "(37.5%)"}, {"measurement": "Abdominal Pain or Stool Consistency: Recurrence", "setting": "subjects with IBS; [8]", "result": "(2.6%)"}, {"measurement": "Abdominal Pain & Stool Consistency: No Recurrence", "setting": "subjects with IBS; [9]", "result": "(44.6%)"}, {"measurement": "Abdominal Pain & Stool Consistency: Recurrence", "setting": "subjects with IBS; [9]", "result": "(3.2%)"}, {"measurement": "Abdominal Pain: No Recurrence", "setting": "subjects with IBS; [9]", "result": "(48.1%)"}, {"measurement": "Abdominal Pain: Recurrence", "setting": "subjects with IBS; [9]", "result": "(3.0%)"}, {"measurement": "Stool Consistency: No Recurrence", "setting": "subjects with IBS; [9]", "result": "(77.6%)"}, {"measurement": "Stool Consistency: Recurrence", "setting": "subjects with IBS; [9]", "result": "(2.1%)"}, {"measurement": "Abdominal Pain or Stool Consistency: No Recurrence", "setting": "subjects with IBS; [10]", "result": "(34.9%)"}, {"measurement": "Abdominal Pain or Stool Consistency: Recurrence", "setting": "subjects with IBS; [10]", "result": "(1.6%)"}, {"measurement": "Abdominal Pain & Stool Consistency: No Recurrence", "setting": "subjects with IBS; [11]", "result": "(41.3%)"}, {"measurement": "Abdominal Pain & Stool Consistency: Recurrence", "setting": "subjects with IBS; [11]", "result": "(2.2%)"}, {"measurement": "Abdominal Pain: No Recurrence", "setting": "subjects with IBS; [11]", "result": "(45.0%)"}, {"measurement": "Abdominal Pain: Recurrence", "setting": "subjects with IBS; [11]", "result": "(2.4%)"}, {"measurement": "Stool Consistency: No Recurrence", "setting": "subjects with IBS; [11]", "result": "(75.5%)"}, {"measurement": "Stool Consistency: Recurrence", "setting": "subjects with IBS; [11]", "result": "(2.6%)"}, {"measurement": "Abdominal Pain or Stool Consistency: No Recurrence", "setting": "subjects with IBS; [12]", "result": "(33.3%)"}, {"measurement": "Abdominal Pain or Stool Consistency: Recurrence", "setting": "subjects with IBS; [12]", "result": "(1.6%)"}, {"measurement": "Abdominal Pain & Stool Consistency: No Recurrence", "setting": "subjects with IBS; [13]", "result": "(39.1%)"}, {"measurement": "Abdominal Pain & Stool Consistency: Recurrence", "setting": "subjects with IBS; [13]", "result": "(1.8%)"}, {"measurement": "Abdominal Pain: No Recurrence", "setting": "subjects with IBS; [13]", "result": "(42.6%)"}, {"measurement": "Abdominal Pain: Recurrence", "setting": "subjects with IBS; [13]", "result": "(2.4%)"}, {"measurement": "Stool Consistency: No Recurrence", "setting": "subjects with IBS; [13]", "result": "(72.9%)"}, {"measurement": "Stool Consistency: Recurrence", "setting": "subjects with IBS; [13]", "result": "(1.4%)"}, {"measurement": "Abdominal Pain or Stool Consistency: No Recurrence", "setting": "subjects with IBS; [14]", "result": "(31.7%)"}, {"measurement": "Abdominal Pain or Stool Consistency: Recurrence", "setting": "subjects with IBS; [14]", "result": "(1.3%)"}, {"measurement": "Abdominal Pain & Stool Consistency: No Recurrence", "setting": "subjects with IBS; [15]", "result": "(37.3%)"}, {"measurement": "Abdominal Pain & Stool Consistency: Recurrence", "setting": "subjects with IBS; [15]", "result": "(2.2%)"}, {"measurement": "Abdominal Pain: No Recurrence", "setting": "subjects with IBS; [15]", "result": "(40.2%)"}, {"measurement": "Abdominal Pain: Recurrence", "setting": "subjects with IBS; [15]", "result": "(2.2%)"}, {"measurement": "Stool Consistency: No Recurrence", "setting": "subjects with IBS; [15]", "result": "(71.5%)"}, {"measurement": "Stool Consistency: Recurrence", "setting": "subjects with IBS; [15]", "result": "(0.5%)"}, {"measurement": "Abdominal Pain or Stool Consistency: No Recurrence", "setting": "subjects with IBS; [16]", "result": "(30.4%)"}, {"measurement": "Abdominal Pain or Stool Consistency: Recurrence", "setting": "subjects with IBS; [16]", "result": "(1.6%)"}]}
